Experiments:
[1] = target: alcool déshydrogénase (ADH), préparation ADH-LYS (polylysine, forme soluble) (Saccharomyces cerevisiae, UniProt P00330); assay: Two-substrate ordered kinetics of alcohol dehydrogenase, soluble polylysine-grafted preparation; type: biochemical; conditions: compared with the other soluble preparations
Text: (§1) L'alcool déshydrogénase étant un enzyme suivant une réaction ordonnée à deux substrats, sa cinétique répond à l'équation : [formula] Ka et Kb sont les constantes de type Michaelis-Menten correspondant à la dissociation du complexe ternaire du NAD⁺ et de l'éthanol alors que Kia représente la constante de dissociation du complexe binaire ADH-NAD⁺ (Wratten et Cleland, 1963, Biochemistry 2, 935-941).
(§2) Les valeurs des constantes pour les diverses préparations sont donnés au tableau 3. Nous ne pouvons pas ici interpréter chacune de ces valeurs et nous nous limiterons aux variations les plus importantes. En ce qui concerne le Kia, rappelons que plus le Kia est petit, plus l'affinité de l'enzyme pour la fixation de son premier substrat, le NAD⁺ est grande. Nous remarquons peu de variation pour les préparations solubles excepté pour la polylysine. […] Il faut aussi tenir compte de la charge positive de la lysine qui pourrait inhiber la diffusion du NAD⁺. Dans le cas de Ka et Kb, la fixation des peptides sur l'enzyme augmente les constantes, c'est-à-dire diminue l'affinité de fixation de ces substrats sur les complexes quaternaires de l'enzyme. Dans le cas des enzymes incorporés dans le gel, on constate aussi certains changements mais il faut en plus de l'effet du micro-environnement tenir compte des effets de diffusion. […]

[2] = target: alcool déshydrogénase (ADH), préparation ADH-LYS-PAA (poly-lysine-résine, forme immobilisée) (Saccharomyces cerevisiae, UniProt P00330); assay: Two-substrate ordered kinetics of alcohol dehydrogenase, polylysine-grafted preparation copolymerised in polyacrylamide gel; type: biochemical; conditions: enzyme incorporated in polyacrylamide gel; apparent value, diffusion effects
Sequence of alcool déshydrogénase (ADH), préparation ADH-LYS-PAA (poly-lysine-résine, forme immobilisée) (P00330 2-348): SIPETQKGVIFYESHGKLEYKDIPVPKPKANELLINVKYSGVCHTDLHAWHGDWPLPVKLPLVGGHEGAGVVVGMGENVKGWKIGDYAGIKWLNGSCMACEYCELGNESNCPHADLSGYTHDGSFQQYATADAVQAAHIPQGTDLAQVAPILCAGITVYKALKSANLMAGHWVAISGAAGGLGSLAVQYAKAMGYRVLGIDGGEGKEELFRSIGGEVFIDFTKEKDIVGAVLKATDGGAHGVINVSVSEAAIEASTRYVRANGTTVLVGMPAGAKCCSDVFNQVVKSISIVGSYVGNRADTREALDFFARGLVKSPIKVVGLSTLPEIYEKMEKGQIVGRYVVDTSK
Text: as §1, §2

Sequence of alcool déshydrogénase (ADH), préparation ADH-LYS (polylysine, forme soluble) (P00330 2-348): as above

Structure (SMILES): NC(=O)c1ccc[n+]([C@@H]2O[C@H](COP(=O)([O-])OP(=O)(O)OC[C@H]3O[C@@H](n4cnc5c(N)ncnc54)[C@H](O)[C@@H]3O)[C@@H](O)[C@H]2O)c1 [NAD⁺]
- Kia (constante de dissociation du complexe binaire ADH-NAD⁺) [1]: baisse d'affinité
- Kia (constante de dissociation du complexe binaire ADH-NAD⁺) [2]: très faible

From patent publication EP0317544A1, “Method of modifying the micro environment of an enzyme by cross-linking the peptidic molecules, use thereof for making enzymatic reactors requiring the regeneration of the cofactor” (priority 1987, dated 1989)
